# Target: T1, KCNQ2/3 channels (Homo sapiens, UniProt O43525+O43526)
# T1 construct: expressed in transfected cells
# Test: Fluorescence assay using a voltage sensitive dye (fluorimetry)
# Assay type: cell-based
# Conditions: CHO-K1 cells expressing KCNQ2/3; for Emax: CHO-K1, plateau effect relative to saturated retigabine (50 μM) = 100%, negative values = antagonistic, read-out: Fluorimetry % efficacy (retigabine = 100%); for EC50: IC50 where % efficacy is negative, read-out: Fluorimetry EC50/IC50
# T1 sequence (O43526 whole entry): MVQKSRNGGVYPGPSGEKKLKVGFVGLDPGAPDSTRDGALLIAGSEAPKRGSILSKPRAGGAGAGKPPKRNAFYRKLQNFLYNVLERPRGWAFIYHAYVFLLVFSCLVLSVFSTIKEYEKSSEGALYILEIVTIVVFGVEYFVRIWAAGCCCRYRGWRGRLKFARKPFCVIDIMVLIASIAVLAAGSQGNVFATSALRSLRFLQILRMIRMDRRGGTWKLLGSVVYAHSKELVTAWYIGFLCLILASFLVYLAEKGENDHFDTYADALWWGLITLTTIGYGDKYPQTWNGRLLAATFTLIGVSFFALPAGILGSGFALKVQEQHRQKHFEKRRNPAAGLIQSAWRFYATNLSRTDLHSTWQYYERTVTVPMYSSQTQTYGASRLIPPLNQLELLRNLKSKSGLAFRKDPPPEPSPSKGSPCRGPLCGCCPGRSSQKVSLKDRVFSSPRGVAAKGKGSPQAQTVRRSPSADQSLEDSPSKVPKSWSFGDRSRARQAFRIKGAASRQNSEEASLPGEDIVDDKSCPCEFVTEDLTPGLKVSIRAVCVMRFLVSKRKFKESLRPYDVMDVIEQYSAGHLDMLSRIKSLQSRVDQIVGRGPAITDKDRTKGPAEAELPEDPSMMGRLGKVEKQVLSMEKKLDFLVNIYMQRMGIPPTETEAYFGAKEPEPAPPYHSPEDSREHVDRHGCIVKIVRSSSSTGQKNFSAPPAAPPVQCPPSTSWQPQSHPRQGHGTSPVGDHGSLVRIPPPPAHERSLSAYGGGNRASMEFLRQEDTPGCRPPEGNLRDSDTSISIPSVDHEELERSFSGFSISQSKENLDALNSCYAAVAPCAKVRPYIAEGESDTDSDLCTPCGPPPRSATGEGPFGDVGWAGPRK
# T1 sequence (O43525 whole entry): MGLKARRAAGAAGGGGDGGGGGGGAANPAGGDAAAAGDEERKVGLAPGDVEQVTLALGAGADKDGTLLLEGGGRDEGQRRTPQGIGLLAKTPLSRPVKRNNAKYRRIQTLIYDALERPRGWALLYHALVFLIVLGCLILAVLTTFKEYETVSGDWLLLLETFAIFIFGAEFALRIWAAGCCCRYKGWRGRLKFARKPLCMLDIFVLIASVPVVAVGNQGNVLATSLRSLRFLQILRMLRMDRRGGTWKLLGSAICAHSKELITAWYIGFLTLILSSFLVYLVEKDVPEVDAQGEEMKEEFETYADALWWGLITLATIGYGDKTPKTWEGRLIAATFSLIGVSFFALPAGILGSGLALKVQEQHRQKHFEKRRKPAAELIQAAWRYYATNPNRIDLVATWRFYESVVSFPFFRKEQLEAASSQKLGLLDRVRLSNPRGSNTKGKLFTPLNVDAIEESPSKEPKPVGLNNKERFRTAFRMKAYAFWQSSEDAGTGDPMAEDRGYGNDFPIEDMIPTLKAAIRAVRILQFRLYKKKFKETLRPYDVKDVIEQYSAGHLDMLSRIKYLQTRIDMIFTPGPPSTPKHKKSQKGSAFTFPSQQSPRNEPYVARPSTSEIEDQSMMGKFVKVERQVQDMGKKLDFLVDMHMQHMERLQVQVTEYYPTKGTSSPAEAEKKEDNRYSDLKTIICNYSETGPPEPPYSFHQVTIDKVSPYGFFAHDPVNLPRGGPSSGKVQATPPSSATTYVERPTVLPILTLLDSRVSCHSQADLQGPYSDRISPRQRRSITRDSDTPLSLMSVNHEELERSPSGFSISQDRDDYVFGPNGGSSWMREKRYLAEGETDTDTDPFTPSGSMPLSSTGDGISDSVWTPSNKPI
SMILES,Emax,EC50
"CCSc1nc(N2CCN(C(C)=O)CC2)cc(C)c1C(=O)NCc1cccc(F)c1 [Example 144, 6-(4-Acetyl-piperazin-1-yl)-2-ethylsulfanyl-N-[(3-fluorophenyl)-methyl]-4-methyl-pyridine-3-carboxylic acid amide]",59%,
"CCSc1nc(N2CCOCC2)cc(C)c1C(=O)NCc1ccc(C#N)cc1 [Example 145, N-[(4-Cyano-phenyl)-methyl]-2-ethylsulfanyl-4-methyl-6-morpholin-4-yl-pyridine-3-carboxylic acid amide]",145%,0.673 µM
"CCSc1nc(N2CCOCC2)cc(C)c1C(=O)NCc1ccc(COC)cc1 [Example 146, 2-Ethylsulfanyl-N-[[4-(methoxymethyl)-phenyl]-methyl]-4-methyl-6-morpholin-4-yl-pyridine-3-carboxylic acid amide]",159%,2.49 µM
"CCSc1nc(N2CCOCC2)cc(C)c1C(=O)NCc1ccc(COC)c(F)c1 [Example 147, 2-Ethylsulfanyl-N-[[3-fluoro-4-(methoxymethyl)-phenyl]-methyl]-4-methyl-6-morpholin-4-yl-pyridine-3-carboxylic acid amide]",153%,0.53 µM
"CCSc1nc(N2CCOCC2)cc(C)c1C(=O)NCc1ccc(N(C)C)cc1 [Example 148, N-[(4-Dimethylaminophenyl)-methyl]-2-ethylsulfanyl-4-methyl-6-morpholin-4-yl-pyridine-3-carboxylic acid amide]",105%,3.62 µM
"CCSc1nc(N2CCOCC2)cc(C)c1C(=O)NCc1ccc(F)c(COC)c1 [Example 149, 2-Ethylsulfanyl-N-[[4-fluoro-3-(methoxymethyl)-phenyl]-methyl]-4-methyl-6-morpholin-4-yl-pyridine-3-carboxylic acid amide]",136%,0.451 µM
"CCSc1nc(N2CCN(C)C(=O)C2)cc(C)c1C(=O)NCc1cccc(F)c1 [Example 150, 2-Ethylsulfanyl-N-[(3-fluorophenyl)-methyl]-4-methyl-6-(4-methyl-3-oxo-piperazin-1-yl)-pyridine-3-carboxylic acid amide]",98%,9.65 µM
"CCSc1nc(N2CC3(COC3)C2)cc(C)c1C(=O)NCc1cccc(F)c1 [Example 151, 2-Ethylsulfanyl-N-[(3-fluorophenyl)-methyl]-4-methyl-6-(6-oxa-2-azaspiro[3.3]heptan-2-yl)-pyridine-3-carboxylic acid amide]",92%,12.1 µM
"CSc1nc(N2CCOCC2)cc(C)c1C(=O)NCc1ccc(C(F)(F)F)cc1 [Example 157, 4-Methyl-2-methylsulfanyl-6-morpholin-4-yl-N-[[4-(trifluoromethyl)-phenyl]-methyl]-pyridine-3-carboxylic acid amide]",127%,0.166 µM
"CCSc1nc(N2CCN3C(=O)CCC3C2)cc(C)c1C(=O)NCc1cccc(F)c1 (stereo not drawn) [Example 158, 2-Ethylsulfanyl-N-[(3-fluorophenyl)-methyl]-4-methyl-6-(6-oxo-2,3,4,7,8,8a-hexahydro-1H-pyrrolo[1,2-a]pyrazin-2-yl)-pyridine-3-carboxylic acid amide]",60%,
"CCSc1nc(N2CC3CC2CO3)cc(C)c1C(=O)NCc1cccc(F)c1 (stereo not drawn) [Example 159, 2-Ethylsulfanyl-N-[(3-fluorophenyl)-methyl]-4-methyl-6-(3-oxa-6-azabicyclo[2.2.1]heptan-6-yl)-pyridine-3-carboxylic acid amide]",149%,1.26 µM
"CCSc1nc(N2CCOCC2)cc(C)c1C(=O)NCc1ccc(C)cc1 [Example 161, 2-Ethylsulfanyl-4-methyl-6-morpholin-4-yl-N-(p-tolyl-methyl)-pyridine-3-carboxylic acid amide]",143%,0.366 µM
"CCSc1nc(N2CCOCC2)cc(C)c1C(=O)NCc1cccc(C)c1 [Example 164, 2-Ethylsulfanyl-4-methyl-6-morpholin-4-yl-N-(m-tolyl-methyl)-pyridine-3-carboxylic acid amide]",122%,0.237 µM
"COc1nc(N2CCOCC2)cc(C)c1C(=O)NCc1ccc(Cl)cc1 [Example 165, N-[(4-Chlorophenyl)-methyl]-2-methoxy-4-methyl-6-morpholin-4-yl-pyridine-3-carboxylic acid amide]",135%,0.23 µM
"CCOc1nc(N2CCOCC2)cc(C)c1C(=O)NCc1ccc(Cl)cc1 [Example 166, N-[(4-Chlorophenyl)-methyl]-2-ethoxy-4-methyl-6-morpholin-4-yl-pyridine-3-carboxylic acid amide]",134%,0.117 µM
"CCSc1nc(N2CCOC(CC)C2)cc(C)c1C(=O)NCc1cccc(F)c1 (stereo not drawn) [Example 167, 6-(2-Ethyl-morpholin-4-yl)-2-ethylsulfanyl-N-[(3-fluorophenyl)-methyl]-4-methyl-pyridine-3-carboxylic acid amide]",137%,0.113 µM

# Second part, the compound after the results:
Emax,EC50,SMILES
249%,0.063 µM,"CSc1nc(N2CCOCC2)cc(C)c1C(=O)NCCCC(C)(C)C [Example 152, N-(4,4-Dimethyl-pentyl)-4-methyl-2-methylsulfanyl-6-morpholin-4-yl-pyridine-3-carboxylic acid amide]"
210%,0.676 µM,"CSc1nc(N2CCOCC2)cc(C)c1C(=O)NCCCC(F)(F)F [Example 153, 4-Methyl-2-methylsulfanyl-6-morpholin-4-yl-N-(4,4,4-trifluoro-butyl)-pyridine-3-carboxylic acid amide]"
154%,0.394 µM,"CSc1nc(N2CCOCC2)cc(C)c1C(=O)NCc1ccc(F)cc1 [Example 154, N-[(4-Fluorophenyl)-methyl]-4-methyl-2-methylsulfanyl-6-morpholin-4-yl-pyridine-3-carboxylic acid amide]"
158%,0.152 µM,"CSc1nc(N2CCOCC2)cc(C)c1C(=O)NCc1ccc(F)c(F)c1 [Example 155, N-[(3,4-Difluoro-phenyl)-methyl]-4-methyl-2-methylsulfanyl-6-morpholin-4-yl-pyridine-3-carboxylic acid amide]"
167%,0.157 µM,"CSc1nc(N2CCOCC2)cc(C)c1C(=O)NCc1cc(F)cc(F)c1 [Example 156, N-[(3,5-Difluoro-phenyl)-methyl]-4-methyl-2-methylsulfanyl-6-morpholin-4-yl-pyridine-3-carboxylic acid amide]"
70%,,"CCSc1nc(N2CCOCC2)cc(C)c1C(=O)NCCCC#N [Example 160, N-(3-Cyano-propyl)-2-ethylsulfanyl-4-methyl-6-morpholin-4-yl-pyridine-3-carboxylic acid amide]"
21%,,"CCSc1nc(N2CCOCC2)cc(C)c1C(=O)NCCCS(C)(=O)=O [Example 162, 2-Ethylsulfanyl-4-methyl-N-(3-methylsulfonyl-propyl)-6-morpholin-4-yl-pyridine-3-carboxylic acid amide]"
73%,,"CCSc1nc(N2CCOCC2)cc(C)c1C(=O)NCCCCC#N [Example 163, N-(4-Cyano-butyl)-2-ethylsulfanyl-4-methyl-6-morpholin-4-yl-pyridine-3-carboxylic acid amide]"
149%,0.132 µM,"CSc1nc(N2CCOCC2)cc(C)c1C(=O)NCc1ccc(Cl)cc1 [Example 168, N-[(4-Chlorophenyl)-methyl]-4-methyl-2-methylsulfanyl-6-morpholin-4-yl-pyridine-3-carboxylic acid amide]"
